As a reminder, the LD50 is the dose at which mortality reaches 50%. A high value points to a less toxic substance.

Data set [1] relates to Staphylococcus aureus ATCC 6538P. The data set is described as follows: Antibacterial spectrum, minimum inhibitory concentration (Table 1). The format is cell-based. Conditions: ATCC6538P, read-out: Minimum Inhibitory Concentration, Staphylococcus aureus ATCC 6538P.
Data set [2] relates to Streptococcus faecalis ATCC 10541. Described as above. The format is cell-based.
Data set [3] deals with Klebsiella penumoniae ATCC 10031. The data set is described as above. The format is cell-based. The settings on record: ATCC10031, read-out: Minimum Inhibitory Concentration, Klebsiella penumoniae ATCC 10031.
For a further data set, the system named is tumor. The settings on record: known; cited from earlier work.
The conditions of data set [4]: known; derivatives of U.S. Pat. No. 3,514,452; cited from earlier work.
For data set [5], the system named is Gram-nagative and Gram-positive bacteria. The settings on record: known; cited from earlier work.
For a further data set, the system named is Sarcoma 180 solid tumor. The data set is described as follows: Anti-tumor activity against Sarcoma 180 solid tumor in mice (Table 3). The format is in vivo. The settings on record: male dd-strain mice; one-sixth of LD50 i.p. once daily for 8 days; tumor weight on 10th day after transplantation. The procedure:
Small portions of Sarcoma 180 solid tumor are transplanted subcutaneously into male dd-strain mice of about 20 g body weight. To each of 10 mice transplanted with tumor, a solution containing one-sixth of the LD50 value of the test compound is administered intraperitoneally once daily for 8 days starting on the day following the transplantation.
As a control, an equal volume of saline is injected in the same manner as above. On the 10th day after the transplantation, the mice are sacrificed and the weight of the tumor is measured. The ratio of average tumor weight of test animals to average tumor weight of control animals (T/C) is calculated.

The nature of data set [6]: Lipid-solubility: distribution ratio in butanol/water (1:1) (Table 2). The settings on record: in butanol/water (1:1) at 25° C. The format is physicochemical. The text has this:
In determining the lipid-solubility, the distribution ratio of the compound in water and butanol (1:1) is used as the standard.

Another data set in a line: in vivo. The settings on record: mouse, ip. How it is done: The acute toxicity (determined as LD50) is determined in mice by intraperitoneal injection.
The mark [7] stands for this setting: Enterococcus faecalis, ATCC10541; read-out: Minimum Inhibitory Concentration, Streptococcus faecalis ATCC 10541.

Structures are written as SMILES. ≈ marks a conversion by molar mass, not a printed value. Read-outs that look alike come from different tables or passages of the source.

As for `COC12C(COC(N)=O)C3=C(C(=O)C(C)=C(N)C3=O)N1CC1NC12` (single isomer, unassigned) [mitomycin C, reference compound], the MIC in data set [1] is 0.049 µg/mL (≈ 0.147 µM); in data set [2] (setting [7]) it was 0.391 µg/mL (≈ 1.17 µM); in data set [3] it was less than 0.025 µg/mL. Further, the “anti-tumor activity (in words)” value with tumor is on record as “remarkably strong anti-tumor activity”. Also, in data set [4], the “toxicity (in words)” value is recorded as “very toxic”. Further, the “antibacterial activity (in words)” value in data set [5] was “very strong antibacterial activity against Gram-nagative and Gram-positive bacteria”.
Regarding `COC12C(COC(N)=O)C3=C(C(=O)C(C)=C(N)C3=O)N1CC1C2N1C(C)=O` (stereo not drawn) [1a-acetyl mitomycin C, reference compound], in the data set with Sarcoma 180 solid tumor, the “Sarcoma 180 (T/C), ratio of average tumor weight of test animals to control animals” value (shortened to “Sarcoma 180 (T/C), ratio”) is on record as 0.48. Further, the “Distribution Ratio (butanol/water)” value in data set [6] is 3.749. Besides, the MIC in data set [1] came out at 1.56 µg/mL (≈ 4.15 µM); in data set [2] (setting [7]) it was 6.25 µg/mL (≈ 16.6 µM); in [3] it was 0.782 µg/mL (≈ 2.08 µM). In addition, the “toxicity (in words)” value in data set [4] is “much less toxicity than mitomycin C”. In the data set “in vivo”, this molecule returned a 50% lethal dose (LD50) of 23 mg/kg.
In the case of `CCCC(=O)N1C2CN3C4=C(C(=O)C(N)=C(C)C4=O)C(COC(N)=O)C3(OC)C21` (stereo not drawn) [1a-butyryl mitomycin C, reference compound], the “Sarcoma 180 (T/C), ratio” value with Sarcoma 180 solid tumor amounted to 0.59. In data set [6], the “Distribution Ratio (butanol/water)” value is recorded as 4.402. Also, the MIC in data set [1] is 3.12 µg/mL (≈ 7.73 µM); in data set [2] (setting [7]), 25 µg/mL (≈ 61.8 µM); in data set [3], 3.12 µg/mL (≈ 7.73 µM). For the same molecule, the “toxicity (in words)” value in [4] was “much less toxicity than mitomycin C”. The median lethal dose (LD50) in “in vivo” turned out to be 19 mg/kg.
As to `C/C=C/C(=O)N1C2CN3C4=C(C(=O)C(N)=C(C)C4=O)C(COC(N)=O)C3(OC)C21` (stereo not drawn) [1a-crotonoyl mitomycin C, reference compound], the “Sarcoma 180 (T/C), ratio” value in the data set on Sarcoma 180 solid tumor was determined as 0.53. For the same molecule, the MIC amounted to 1.56 µg/mL (≈ 3.88 µM) in [1], 12.5 µg/mL (≈ 31.1 µM) in [2] (setting [7]) and 0.782 µg/mL (≈ 1.94 µM) in [3]. In the data set “in vivo”, this molecule gave an LD50 of 35.5 mg/kg.
Regarding `CCCCCCCCCC(=O)N1C2CN3C4=C(C(=O)C(N)=C(C)C4=O)C(COC(N)=O)C3(OC)C21` (stereo not drawn) [1a-decanoyl mitomycin C, la-decanoyl mitomycin C], the “Distribution Ratio (butanol/water)” value in data set [6] is recorded as 7.889. Also, the MIC in data set [1] is 0.782 µg/mL (≈ 1.6 µM); in data set [2] (setting [7]) it was greater than 50 µg/mL; in data set [3] it was 12.5 µg/mL (≈ 25.6 µM). In “in vivo”, this molecule had an LD50 of 67.5 mg/kg.
For the molecule `CCCCCCCCCCCC(=O)N1C2CN3C4=C(C(=O)C(N)=C(C)C4=O)C(COC(N)=O)C3(OC)C21` (stereo not drawn) [1a-lauroyl mitomycin C, la-lauroyl mitomycin C], the MIC is 0.391 µg/mL (≈ 0.757 µM) in data set [1], greater than 50 µg/mL in data set [2] (setting [7]) and greater than 50 µg/mL in [3]. The LD50 in “in vivo” came to 44.5 mg/kg.
With `CC/C=C\C/C=C\C/C=C\CCCCCCCC(=O)N1[C@H]2[C@@H]1CN1C3=C(C(=O)C(N)=C(C)C3=O)[C@@H](COC(N)=O)[C@@]21OC` [1a-linolenoyl mitomycin C, la-linolenoyl mitomycin C], the MIC worked out at 0.782 µg/mL (≈ 1.31 µM) in [1], 1.56 µg/mL (≈ 2.63 µM) in data set [2] (setting [7]) and 6.25 µg/mL (≈ 10.5 µM) in data set [3]. Moreover, in the data set “in vivo”, the LD50 came out at 95 mg/kg.
Regarding `CCCCC/C=C\C/C=C\CCCCCCCC(=O)N1C2CN3C4=C(C(=O)C(N)=C(C)C4=O)C(COC(N)=O)C3(OC)C21` (stereo not drawn) [1a-linoleoyl mitomycin C, la-linoleoyl mitomycin C], in the data set on Sarcoma 180 solid tumor, the “Sarcoma 180 (T/C), ratio” value was 0.35. For the same molecule, the “Distribution Ratio (butanol/water)” value in data set [6] was 9.665. Also, the figures for the MIC in [1], in [2] (setting [7]) and in data set [3] were 0.782 µg/mL (≈ 1.31 µM), 0.782 µg/mL (≈ 1.31 µM) and 12.5 µg/mL (≈ 20.9 µM), respectively. Further, the LD50 in the data set “in vivo” came out at 110 mg/kg.
For `CCCCCCCCCCCCCC(=O)N1C2CN3C4=C(C(=O)C(N)=C(C)C4=O)C(COC(N)=O)C3(OC)C21` (stereo not drawn) [1a-myristoyl mitomycin C, la-myristoyl mitomycin C], the values for the MIC in data set [1], in [2] (setting [7]) and in data set [3] were 0.391 µg/mL (≈ 0.718 µM), 1.56 µg/mL (≈ 2.87 µM) and greater than 50 µg/mL, respectively. In “in vivo”, this molecule yielded a 50% lethal dose (LD50) of 45 mg/kg.
For `CCCCCCCC/C=C\CCCCCCCC(=O)N1C2CN3C4=C(C(=O)C(N)=C(C)C4=O)C(COC(N)=O)C3(OC)C21` (stereo not drawn) [1a-oleoyl mitomycin C, la-oleoyl mitomycin C], the “Sarcoma 180 (T/C), ratio” value in the data set on Sarcoma 180 solid tumor is 0.31. Further, the values for the MIC in data set [1], in [2] (setting [7]) and in data set [3] were 0.782 µg/mL (≈ 1.31 µM), 1.56 µg/mL (≈ 2.61 µM) and greater than 50 µg/mL, respectively. This molecule also returned an LD50 in “in vivo” of 105 mg/kg.
For `CCCCCCCCCCCCCCCC(=O)N1C2CN3C4=C(C(=O)C(N)=C(C)C4=O)C(COC(N)=O)C3(OC)C21` (stereo not drawn) [1a-palmitoyl mitomycin C, la-palmitoyl mitomycin C], the MIC in data set [1] was 0.782 µg/mL (≈ 1.37 µM); in [2] (setting [7]), 0.782 µg/mL (≈ 1.37 µM); in data set [3], greater than 50 µg/mL. Moreover, the LD50 in the data set “in vivo” came to 75 mg/kg.
For the molecule `CCCCCC[C@@H](O)C/C=C\CCCCCCCC(=O)N1C2CN3C4=C(C(=O)C(N)=C(C)C4=O)C(COC(N)=O)C3(OC)C21` (stereo partly drawn) [1a-ricinoleoyl mitomycin C, la-ricinoleoyl mitomycin C], the “Sarcoma 180 (T/C), ratio” value with Sarcoma 180 solid tumor came out at 0.28. Moreover, the results for the MIC in data set [1], in data set [2] (setting [7]) and in data set [3] were 0.391 µg/mL (≈ 0.636 µM), 0.782 µg/mL (≈ 1.27 µM) and 0.782 µg/mL (≈ 1.27 µM), respectively. The same molecule had an LD50 in “in vivo” of 60 mg/kg.
Turning to `CCCCCCCCCCCCCCCCCC(=O)N1C2CN3C4=C(C(=O)C(N)=C(C)C4=O)C(COC(N)=O)C3(OC)C21` (stereo not drawn) [1a-stearoyl mitomycin C, la-stearoyl mitomycin C], the MIC in [1], in [2] (setting [7]) and in data set [3] was greater than 50 µg/mL throughout. In addition, the LD50 in the data set “in vivo” worked out at 75 mg/kg.
As for `CCCCCC/C=C/CCCCCCCCCC(=O)N1[C@H]2[C@@H]1CN1C3=C(C(=O)C(N)=C(C)C3=O)[C@@H](COC(N)=O)[C@@]21OC` [1a-vaccenoyl mitomycin C, la-vaccenoyl mitomycin C], in the data set on Sarcoma 180 solid tumor, the “Sarcoma 180 (T/C), ratio” value came out at 0.34. Besides, the MIC worked out at 0.782 µg/mL (≈ 1.31 µM) in [1], 3.12 µg/mL (≈ 5.22 µM) in [2] (setting [7]) and 50 µg/mL (≈ 83.5 µM) in data set [3]. The same molecule gave an LD50 in the data set “in vivo” of 105 mg/kg.
Take `CCCCCCCC/C=C\CCCCCCCCCCCC(=O)N1C2CN3C4=C(C(=O)C(N)=C(C)C4=O)C(COC(N)=O)C3(OC)C21` (stereo not drawn) [la-ercoyl mitomycin C]: the MIC was greater than 50 µg/mL in data set [1]; greater than 50 µg/mL in data set [2] (Enterococcus faecalis, ATCC10541, read-out: Minimum Inhibitory Concentration, Streptococcus faecalis ATCC 10541); 50 µg/mL (≈ 76.3 µM) in [3]. Further, in “in vivo”, the LD50 came to 125 mg/kg.

Values taken from US4021449A (Kyowa Hakko Kogyo Co., Ltd., priority 1973, dated 1977).
